According to the kinase profiling compilation of Christmann-Franck et al. (2016):

What was measured:
Test in all cases: radiometric filter-binding kinase assay, Kinase HotSpot
Settings in all cases: compound 0.5 µM; ATP 10 µM
ACVR1B (human) = ACVR1B (human) (UniProt P36896)
AURKB (human) = AURKB (human) (UniProt Q96GD4)
CAMK1 (human) = CAMK1 (human) (UniProt Q14012)
CHEK1 (human) = CHEK1 (human) (UniProt O14757)
CLK2 (human) = CLK2 (human) (UniProt P49760)
DAPK2 (human) = DAPK2 (human) (UniProt Q9UIK4)
EPHA3 (human) = EPHA3 (human) (UniProt P29320)
Chain of EPHA3 (human) (P29320 whole entry, looked up): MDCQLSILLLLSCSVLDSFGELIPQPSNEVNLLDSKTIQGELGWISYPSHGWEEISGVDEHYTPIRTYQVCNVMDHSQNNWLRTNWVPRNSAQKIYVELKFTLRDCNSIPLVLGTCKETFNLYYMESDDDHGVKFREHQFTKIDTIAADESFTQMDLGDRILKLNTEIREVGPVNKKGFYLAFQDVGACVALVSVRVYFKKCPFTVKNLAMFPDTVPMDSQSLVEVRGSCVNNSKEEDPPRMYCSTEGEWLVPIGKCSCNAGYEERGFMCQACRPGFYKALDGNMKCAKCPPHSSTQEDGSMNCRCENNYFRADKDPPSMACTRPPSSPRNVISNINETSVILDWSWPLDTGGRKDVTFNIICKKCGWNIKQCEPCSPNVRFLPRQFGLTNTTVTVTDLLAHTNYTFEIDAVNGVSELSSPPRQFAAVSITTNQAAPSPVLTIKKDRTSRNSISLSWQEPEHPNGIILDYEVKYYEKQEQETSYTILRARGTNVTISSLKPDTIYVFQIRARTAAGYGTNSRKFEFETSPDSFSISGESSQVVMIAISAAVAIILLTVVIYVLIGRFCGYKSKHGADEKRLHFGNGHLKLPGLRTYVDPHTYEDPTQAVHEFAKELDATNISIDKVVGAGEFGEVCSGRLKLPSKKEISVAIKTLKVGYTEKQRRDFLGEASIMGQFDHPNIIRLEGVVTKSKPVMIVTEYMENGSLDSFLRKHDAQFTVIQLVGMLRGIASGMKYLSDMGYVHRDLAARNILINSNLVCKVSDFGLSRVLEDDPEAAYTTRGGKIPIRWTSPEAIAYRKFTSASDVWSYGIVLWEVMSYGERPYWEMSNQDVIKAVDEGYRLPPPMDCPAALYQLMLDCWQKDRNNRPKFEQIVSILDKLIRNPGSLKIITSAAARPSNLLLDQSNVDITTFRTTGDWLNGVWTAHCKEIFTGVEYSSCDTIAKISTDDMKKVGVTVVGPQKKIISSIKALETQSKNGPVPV

EPHB3 (human) = EPHB3 (human) (UniProt P54753)
Chain of EPHB3 (human) (P54753 whole entry, looked up): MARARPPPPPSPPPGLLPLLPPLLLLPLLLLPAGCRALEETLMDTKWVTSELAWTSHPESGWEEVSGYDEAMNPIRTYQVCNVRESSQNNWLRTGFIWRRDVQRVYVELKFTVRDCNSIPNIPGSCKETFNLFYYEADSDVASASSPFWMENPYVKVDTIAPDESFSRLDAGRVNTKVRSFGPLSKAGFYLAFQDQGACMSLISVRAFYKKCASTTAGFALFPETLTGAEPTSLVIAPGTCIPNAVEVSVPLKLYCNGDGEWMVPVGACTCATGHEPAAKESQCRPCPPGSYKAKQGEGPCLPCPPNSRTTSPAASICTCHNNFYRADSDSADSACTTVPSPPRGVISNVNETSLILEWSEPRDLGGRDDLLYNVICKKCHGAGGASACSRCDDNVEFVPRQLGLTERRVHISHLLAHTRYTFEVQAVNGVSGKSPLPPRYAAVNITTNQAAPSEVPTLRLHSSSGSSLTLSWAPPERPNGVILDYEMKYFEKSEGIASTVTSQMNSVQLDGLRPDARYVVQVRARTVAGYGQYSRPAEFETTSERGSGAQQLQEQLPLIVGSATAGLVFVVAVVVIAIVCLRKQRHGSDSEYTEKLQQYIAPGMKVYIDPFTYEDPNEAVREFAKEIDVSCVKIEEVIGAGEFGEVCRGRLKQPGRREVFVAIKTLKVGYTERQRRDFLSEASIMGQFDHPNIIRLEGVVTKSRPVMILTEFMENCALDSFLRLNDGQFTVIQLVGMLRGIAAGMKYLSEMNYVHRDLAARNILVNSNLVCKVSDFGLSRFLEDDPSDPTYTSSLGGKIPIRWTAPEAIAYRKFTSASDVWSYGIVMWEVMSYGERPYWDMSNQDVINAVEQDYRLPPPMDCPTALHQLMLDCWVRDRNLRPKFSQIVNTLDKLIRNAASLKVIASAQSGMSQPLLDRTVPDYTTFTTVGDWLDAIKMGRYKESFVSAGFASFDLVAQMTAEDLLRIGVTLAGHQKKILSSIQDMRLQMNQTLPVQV

ERBB2 (human) = ERBB2 (human) (UniProt P04626)
FGFR1 (human) = FGFR1 (human) (UniProt P11362)
GSK3B (human) = GSK3B (human) (UniProt P49841)
IKBKE (human) = IKBKE (human) (UniProt Q14164)
IRAK1 (human) = IRAK1 (human) (UniProt P51617)
MAPK10 (human) = MAPK10 (human) (UniProt P53779)
Chain of MAPK10 (human) (P53779 whole entry, looked up): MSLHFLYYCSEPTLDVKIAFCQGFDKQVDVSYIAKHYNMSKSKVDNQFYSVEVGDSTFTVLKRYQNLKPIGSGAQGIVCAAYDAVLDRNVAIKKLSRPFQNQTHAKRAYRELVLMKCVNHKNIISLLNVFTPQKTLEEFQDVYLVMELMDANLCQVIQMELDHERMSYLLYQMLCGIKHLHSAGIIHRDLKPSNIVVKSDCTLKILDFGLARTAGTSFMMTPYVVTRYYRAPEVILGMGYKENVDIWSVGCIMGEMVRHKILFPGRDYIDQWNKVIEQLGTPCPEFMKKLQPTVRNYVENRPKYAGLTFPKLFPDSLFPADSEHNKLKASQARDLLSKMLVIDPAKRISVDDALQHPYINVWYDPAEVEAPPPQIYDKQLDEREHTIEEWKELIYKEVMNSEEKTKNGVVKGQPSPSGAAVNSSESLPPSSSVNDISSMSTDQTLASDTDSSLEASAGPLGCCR

MAPK11 (human) = MAPK11 (human) (UniProt Q15759)
MAPKAPK5 (human) = MAPKAPK5 (human) (UniProt Q8IW41)
MET (human) = MET (human) (UniProt P08581)
MINK1 (human) = MINK1 (human) (UniProt Q8N4C8)
MKNK2 (human) = MKNK2 (human) (UniProt Q9HBH9)
Chain of MKNK2 (human) (Q9HBH9 whole entry, looked up): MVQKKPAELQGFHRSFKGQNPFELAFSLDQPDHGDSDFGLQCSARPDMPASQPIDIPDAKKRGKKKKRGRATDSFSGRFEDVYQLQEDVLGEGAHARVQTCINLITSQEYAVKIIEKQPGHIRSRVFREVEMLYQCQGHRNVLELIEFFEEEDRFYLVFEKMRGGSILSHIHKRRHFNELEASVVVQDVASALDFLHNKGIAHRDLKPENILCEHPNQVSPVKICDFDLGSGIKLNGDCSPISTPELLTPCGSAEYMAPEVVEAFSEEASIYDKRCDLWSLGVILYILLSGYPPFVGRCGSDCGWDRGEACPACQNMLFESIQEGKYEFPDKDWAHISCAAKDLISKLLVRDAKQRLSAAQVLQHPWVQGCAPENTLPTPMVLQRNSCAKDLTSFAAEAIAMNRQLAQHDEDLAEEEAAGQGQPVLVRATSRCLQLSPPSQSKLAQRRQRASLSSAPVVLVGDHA

MLTK (human) = MLTK (human) (UniProt Q9NYL2)
MST4 (human) = MST4 (human) (UniProt Q9P289)
MYLK (human) = MYLK (human) (UniProt Q15746)
MYLK2 (human) = MYLK2 (human) (UniProt Q9H1R3)
Chain of MYLK2 (human) (Q9H1R3 whole entry, looked up): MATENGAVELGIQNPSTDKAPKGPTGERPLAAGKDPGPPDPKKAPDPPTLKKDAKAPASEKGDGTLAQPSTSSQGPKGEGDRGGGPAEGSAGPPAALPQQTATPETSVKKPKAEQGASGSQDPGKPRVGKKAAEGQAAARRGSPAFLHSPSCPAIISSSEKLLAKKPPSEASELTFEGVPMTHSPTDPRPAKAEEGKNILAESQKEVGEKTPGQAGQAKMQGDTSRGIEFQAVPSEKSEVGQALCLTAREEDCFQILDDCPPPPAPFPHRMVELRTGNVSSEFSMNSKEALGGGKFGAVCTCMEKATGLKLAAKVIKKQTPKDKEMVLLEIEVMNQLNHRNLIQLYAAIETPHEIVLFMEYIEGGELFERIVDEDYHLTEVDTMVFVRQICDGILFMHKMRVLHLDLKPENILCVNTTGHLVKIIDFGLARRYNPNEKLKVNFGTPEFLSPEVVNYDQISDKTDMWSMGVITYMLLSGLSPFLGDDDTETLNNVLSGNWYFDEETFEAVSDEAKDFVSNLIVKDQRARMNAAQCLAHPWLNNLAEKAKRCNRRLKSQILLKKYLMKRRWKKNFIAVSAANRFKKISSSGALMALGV

NEK1 (human) = NEK1 (human) (UniProt Q96PY6)
NEK7 (human) = NEK7 (human) (UniProt Q8TDX7)
Chain of NEK7 (human) (Q8TDX7 whole entry, looked up): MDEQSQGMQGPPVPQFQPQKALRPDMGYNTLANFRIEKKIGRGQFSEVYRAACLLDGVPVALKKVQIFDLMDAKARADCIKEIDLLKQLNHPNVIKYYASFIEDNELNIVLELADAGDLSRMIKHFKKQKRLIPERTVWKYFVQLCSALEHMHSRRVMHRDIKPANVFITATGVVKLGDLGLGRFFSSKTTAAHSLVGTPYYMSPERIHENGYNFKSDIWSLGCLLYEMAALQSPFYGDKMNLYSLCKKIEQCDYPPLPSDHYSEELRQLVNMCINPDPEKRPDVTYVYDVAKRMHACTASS

PAK4 (human) = PAK4 (human) (UniProt O96013)
PHKG2 (human) = PHKG2 (human) (UniProt P15735)
PLK1 (human) = PLK1 (human) (UniProt P53350)
PNCK (human) = PNCK (human) (UniProt Q6P2M8)
PRKCB1 (human) = PRKCB1 (human) (UniProt P05771)
PRKCI (human) = PRKCI (human) (UniProt P41743)
PRKD2 (human) = PRKD2 (human) (UniProt Q9BZL6)
RET (human) = RET (human) (UniProt P07949)
RPS6KA3 KD1 KD2 (human) = RPS6KA3 KD1 KD2 (human) (UniProt P51812)
RPS6KA6 KD1 KD2 (human) = RPS6KA6 KD1 KD2 (human) (UniProt Q9UK32)
RPS6KB1 (human) = RPS6KB1 (human) (UniProt P23443)
STK25 (human) = STK25 (human) (UniProt O00506)
STK3 (human) = STK3 (human) (UniProt Q13188)
Chain of STK3 (human) (Q13188 whole entry, looked up): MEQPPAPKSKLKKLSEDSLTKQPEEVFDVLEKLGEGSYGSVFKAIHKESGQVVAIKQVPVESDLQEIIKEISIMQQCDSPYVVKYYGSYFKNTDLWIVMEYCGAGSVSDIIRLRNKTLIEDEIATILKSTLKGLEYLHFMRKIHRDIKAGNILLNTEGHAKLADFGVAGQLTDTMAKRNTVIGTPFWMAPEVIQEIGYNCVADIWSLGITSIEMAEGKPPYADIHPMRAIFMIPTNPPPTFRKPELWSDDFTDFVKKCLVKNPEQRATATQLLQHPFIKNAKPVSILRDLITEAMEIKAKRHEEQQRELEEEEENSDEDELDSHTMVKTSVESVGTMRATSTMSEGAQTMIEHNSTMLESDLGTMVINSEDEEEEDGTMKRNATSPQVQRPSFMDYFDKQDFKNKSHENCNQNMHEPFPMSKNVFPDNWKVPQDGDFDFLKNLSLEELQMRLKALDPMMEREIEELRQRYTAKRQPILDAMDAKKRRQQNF

TYRO3 (human) = TYRO3 (human) (UniProt Q06418)
YES1 (human) = YES1 (human) (UniProt P07947)

Chain of CAMK1 (human) (Q14012 whole entry, looked up): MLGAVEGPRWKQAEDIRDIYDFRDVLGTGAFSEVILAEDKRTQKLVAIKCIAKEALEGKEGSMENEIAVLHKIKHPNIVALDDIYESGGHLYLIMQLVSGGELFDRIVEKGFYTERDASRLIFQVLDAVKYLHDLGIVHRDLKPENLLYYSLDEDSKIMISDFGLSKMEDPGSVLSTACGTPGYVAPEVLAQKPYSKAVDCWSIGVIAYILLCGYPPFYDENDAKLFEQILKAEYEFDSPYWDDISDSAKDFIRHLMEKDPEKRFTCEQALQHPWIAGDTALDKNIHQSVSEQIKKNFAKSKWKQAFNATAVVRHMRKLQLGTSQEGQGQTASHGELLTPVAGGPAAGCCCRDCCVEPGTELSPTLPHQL
Chain of AURKB (human) (Q96GD4 whole entry, looked up): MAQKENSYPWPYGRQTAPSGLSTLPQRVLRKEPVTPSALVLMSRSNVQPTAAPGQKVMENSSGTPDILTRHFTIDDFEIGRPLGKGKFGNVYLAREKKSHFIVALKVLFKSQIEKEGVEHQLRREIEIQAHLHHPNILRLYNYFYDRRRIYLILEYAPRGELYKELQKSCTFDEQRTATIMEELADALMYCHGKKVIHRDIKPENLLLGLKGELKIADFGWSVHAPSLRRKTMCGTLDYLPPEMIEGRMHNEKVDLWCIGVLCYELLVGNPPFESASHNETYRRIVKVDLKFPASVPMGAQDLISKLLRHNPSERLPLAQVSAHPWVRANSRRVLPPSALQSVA

| SMILES | residual activity (ACVR1B (human)) [%] | residual activity (AURKB (human)) [%] | residual activity (CAMK1 (human)) [%] | residual activity (CHEK1 (human)) [%] | residual activity (CLK2 (human)) [%] | residual activity (DAPK2 (human)) [%] | residual activity (EPHA3 (human)) [%] | residual activity (EPHB3 (human)) [%] | residual activity (ERBB2 (human)) [%] | residual activity (FGFR1 (human)) [%] | residual activity (GSK3B (human)) [%] | residual activity (IKBKE (human)) [%] | residual activity (IRAK1 (human)) [%] | residual activity (MAPK10 (human)) [%] | residual activity (MAPK11 (human)) [%] | residual activity (MAPKAPK5 (human)) [%] | residual activity (MET (human)) [%] | residual activity (MINK1 (human)) [%] | residual activity (MKNK2 (human)) [%] | residual activity (MLTK (human)) [%] | further results |
| --- | --- | --- | --- | --- | --- | --- | --- | --- | --- | --- | --- | --- | --- | --- | --- | --- | --- | --- | --- | --- | --- |
| O=c1cc(N2CCOCC2)oc2c1ccc1ccccc12 | 103 | 97.6 | 111 | 104 | 101 | 115 | 112 | 90 | 105 | 92.1 | 124 | 101 | 112 | 73.8 | 97.9 | 98.4 | 161 | 96 | 88.5 | 98 | residual activity (MST4 (human)): 93.2%; residual activity (MYLK (human)): 92.3%; residual activity (MYLK2 (human)): 97.7%; residual activity (NEK1 (human)): 106%; residual activity (NEK7 (human)): 96.6%; residual activity (PAK4 (human)): 108%; residual activity (PHKG2 (human)): 99.8%; residual activity (PLK1 (human)): 68.4%; residual activity (PNCK (human)): 97.4%; residual activity (PRKCB1 (human)): 93.4%; residual activity (PRKCI (human)): 95.5%; residual activity (PRKD2 (human)): 101%; residual activity (RET (human)): 99.8%; residual activity (RPS6KA3 KD1 KD2 (human)): 103%; residual activity (RPS6KA6 KD1 KD2 (human)): 95.4%; residual activity (RPS6KB1 (human)): 99.3%; residual activity (STK25 (human)): 94.8%; residual activity (STK3 (human)): 99.1%; residual activity (TYRO3 (human)): 97.3%; residual activity (YES1 (human)): 98.7% |
| Cc1ccc(S(=O)(=O)/C=C/C#N)cc1 | 107 | 92.3 | 98.8 | 97.5 | 103 | 100 | 95 | 104 | 94.2 | 106 | 109 | 101 | 103 | 107 | 102 | 88.9 | 94.7 | 111 | 119 | 94.7 | residual activity (MST4 (human)): 90.7%; residual activity (MYLK (human)): 93.9%; residual activity (MYLK2 (human)): 105%; residual activity (NEK1 (human)): 92.3%; residual activity (NEK7 (human)): 93.4%; residual activity (PAK4 (human)): 91.9%; residual activity (PHKG2 (human)): 109%; residual activity (PLK1 (human)): 110%; residual activity (PNCK (human)): 107%; residual activity (PRKCB1 (human)): 101%; residual activity (PRKCI (human)): 90.3%; residual activity (PRKD2 (human)): 98.1%; residual activity (RET (human)): 102%; residual activity (RPS6KA3 KD1 KD2 (human)): 95.9%; residual activity (RPS6KA6 KD1 KD2 (human)): 95.4%; residual activity (RPS6KB1 (human)): 105%; residual activity (STK25 (human)): 89.6%; residual activity (STK3 (human)): 93.6%; residual activity (TYRO3 (human)): 99.8%; residual activity (YES1 (human)): 94.2% |
| COc1ccc2c(c[n+](C)c3c4cc5c(cc4ccc23)OCO5)c1OC | 110 | 99.2 | 81.4 | 94.4 | 90.6 | 93.9 | 94.9 | 95.4 | 101 | 96 | 88.3 | 101 | 103 | 100 | 91.6 | 83.5 | 94.7 | 97.5 | 107 | 94.7 | residual activity (MST4 (human)): 89.4%; residual activity (MYLK (human)): 100%; residual activity (MYLK2 (human)): 95.3%; residual activity (NEK1 (human)): 91.3%; residual activity (NEK7 (human)): 98.9%; residual activity (PAK4 (human)): 99.5%; residual activity (PHKG2 (human)): 94.8%; residual activity (PLK1 (human)): 93.6%; residual activity (PNCK (human)): 103%; residual activity (PRKCB1 (human)): 100%; residual activity (PRKCI (human)): 98.3%; residual activity (PRKD2 (human)): 90.1%; residual activity (RET (human)): 97%; residual activity (RPS6KA3 KD1 KD2 (human)): 94.6%; residual activity (RPS6KA6 KD1 KD2 (human)): 91.1%; residual activity (RPS6KB1 (human)): 99.8%; residual activity (STK25 (human)): 98.8%; residual activity (STK3 (human)): 102%; residual activity (TYRO3 (human)): 95.7%; residual activity (YES1 (human)): 93.8% |
